Data published in ChEMBL document CHEMBL5465560, “Selectivity Literature for EUbOPEN Chemogenomic Library” (2024).

What was measured:
[1] = biological target: Serine/threonine-protein kinase RIO2 (Homo sapiens) (UniProt Q9BVS4); assay: Selectivity interaction (KinomeScan (DiscoverX)) EUB0000595a RIOK2; settings: at 10 µM
[2] = biological target: Ribosomal protein S6 kinase alpha-1 (Homo sapiens, UniProt Q15418); assay: Selectivity interaction (KinomeScan (DiscoverX)) EUB0000595a RPS6KA1; settings: at 10 µM
Chain of Ribosomal protein S6 kinase alpha-1 (Q15418 whole entry): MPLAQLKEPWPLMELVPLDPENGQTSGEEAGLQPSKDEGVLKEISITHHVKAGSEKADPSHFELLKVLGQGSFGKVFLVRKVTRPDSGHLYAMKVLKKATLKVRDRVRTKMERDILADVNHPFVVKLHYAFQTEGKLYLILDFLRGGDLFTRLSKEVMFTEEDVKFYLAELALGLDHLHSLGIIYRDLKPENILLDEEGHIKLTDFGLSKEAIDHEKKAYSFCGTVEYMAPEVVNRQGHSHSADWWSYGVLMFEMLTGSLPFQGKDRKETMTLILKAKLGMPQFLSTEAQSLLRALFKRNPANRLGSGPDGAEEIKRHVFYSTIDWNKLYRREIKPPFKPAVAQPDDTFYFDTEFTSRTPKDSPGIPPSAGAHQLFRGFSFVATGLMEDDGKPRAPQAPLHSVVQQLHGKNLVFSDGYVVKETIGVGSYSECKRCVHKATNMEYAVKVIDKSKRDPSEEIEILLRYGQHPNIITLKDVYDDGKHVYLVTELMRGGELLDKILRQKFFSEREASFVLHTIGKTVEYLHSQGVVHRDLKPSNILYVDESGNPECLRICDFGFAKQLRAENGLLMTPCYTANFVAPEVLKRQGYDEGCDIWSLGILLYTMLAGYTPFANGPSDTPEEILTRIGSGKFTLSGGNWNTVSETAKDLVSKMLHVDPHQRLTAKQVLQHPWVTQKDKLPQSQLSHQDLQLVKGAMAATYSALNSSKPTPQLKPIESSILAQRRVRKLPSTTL

[3] = biological target: Protein kinase C gamma type (Homo sapiens) (UniProt P05129); assay: Selectivity interaction (Kinase panel (Z-LYTE Assay)) EUB0001632a PRKCG; settings: at 10 µM
[4] = biological target: Interferon-induced, double-stranded RNA-activated protein kinase (Homo sapiens) (UniProt P19525); assay: Selectivity interaction (KinomeScan (DiscoverX)) EUB0000666a EIF2AK2; settings: at 10 µM
[5] = biological target: T1, cGMP-dependent protein kinase 2 (Homo sapiens) (UniProt Q13237); assay: Selectivity interaction (KinomeScan (DiscoverX)) EUB0000666a PRKG2; settings: at 10 µM
T1 sequence (whole entry): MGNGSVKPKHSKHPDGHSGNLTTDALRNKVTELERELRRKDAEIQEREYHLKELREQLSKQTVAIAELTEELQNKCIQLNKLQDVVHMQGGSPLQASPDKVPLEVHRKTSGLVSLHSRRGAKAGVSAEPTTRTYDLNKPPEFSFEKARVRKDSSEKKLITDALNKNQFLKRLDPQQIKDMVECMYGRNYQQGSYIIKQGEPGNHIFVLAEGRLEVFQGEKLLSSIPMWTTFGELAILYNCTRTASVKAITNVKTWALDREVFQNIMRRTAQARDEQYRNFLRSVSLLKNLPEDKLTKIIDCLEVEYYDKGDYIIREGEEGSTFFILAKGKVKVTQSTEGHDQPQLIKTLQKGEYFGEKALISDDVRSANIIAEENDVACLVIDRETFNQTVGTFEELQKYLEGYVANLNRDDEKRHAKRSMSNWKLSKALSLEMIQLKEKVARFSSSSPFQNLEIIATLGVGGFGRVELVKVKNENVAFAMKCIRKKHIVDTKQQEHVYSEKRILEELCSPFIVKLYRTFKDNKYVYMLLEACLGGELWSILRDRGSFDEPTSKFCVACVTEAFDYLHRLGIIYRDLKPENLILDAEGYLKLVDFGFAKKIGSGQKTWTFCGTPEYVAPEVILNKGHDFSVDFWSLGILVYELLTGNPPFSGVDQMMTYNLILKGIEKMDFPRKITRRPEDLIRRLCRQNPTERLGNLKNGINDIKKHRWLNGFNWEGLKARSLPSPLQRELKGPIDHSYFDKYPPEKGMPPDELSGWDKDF

[6] = biological target: T2, Mitogen-activated protein kinase kinase kinase 1 (Homo sapiens, UniProt Q13233); assay: Selectivity interaction (KinomeScan (DiscoverX)) EUB0000666a MAP3K1; settings: at 10 µM
T2 sequence (Q13233 whole entry): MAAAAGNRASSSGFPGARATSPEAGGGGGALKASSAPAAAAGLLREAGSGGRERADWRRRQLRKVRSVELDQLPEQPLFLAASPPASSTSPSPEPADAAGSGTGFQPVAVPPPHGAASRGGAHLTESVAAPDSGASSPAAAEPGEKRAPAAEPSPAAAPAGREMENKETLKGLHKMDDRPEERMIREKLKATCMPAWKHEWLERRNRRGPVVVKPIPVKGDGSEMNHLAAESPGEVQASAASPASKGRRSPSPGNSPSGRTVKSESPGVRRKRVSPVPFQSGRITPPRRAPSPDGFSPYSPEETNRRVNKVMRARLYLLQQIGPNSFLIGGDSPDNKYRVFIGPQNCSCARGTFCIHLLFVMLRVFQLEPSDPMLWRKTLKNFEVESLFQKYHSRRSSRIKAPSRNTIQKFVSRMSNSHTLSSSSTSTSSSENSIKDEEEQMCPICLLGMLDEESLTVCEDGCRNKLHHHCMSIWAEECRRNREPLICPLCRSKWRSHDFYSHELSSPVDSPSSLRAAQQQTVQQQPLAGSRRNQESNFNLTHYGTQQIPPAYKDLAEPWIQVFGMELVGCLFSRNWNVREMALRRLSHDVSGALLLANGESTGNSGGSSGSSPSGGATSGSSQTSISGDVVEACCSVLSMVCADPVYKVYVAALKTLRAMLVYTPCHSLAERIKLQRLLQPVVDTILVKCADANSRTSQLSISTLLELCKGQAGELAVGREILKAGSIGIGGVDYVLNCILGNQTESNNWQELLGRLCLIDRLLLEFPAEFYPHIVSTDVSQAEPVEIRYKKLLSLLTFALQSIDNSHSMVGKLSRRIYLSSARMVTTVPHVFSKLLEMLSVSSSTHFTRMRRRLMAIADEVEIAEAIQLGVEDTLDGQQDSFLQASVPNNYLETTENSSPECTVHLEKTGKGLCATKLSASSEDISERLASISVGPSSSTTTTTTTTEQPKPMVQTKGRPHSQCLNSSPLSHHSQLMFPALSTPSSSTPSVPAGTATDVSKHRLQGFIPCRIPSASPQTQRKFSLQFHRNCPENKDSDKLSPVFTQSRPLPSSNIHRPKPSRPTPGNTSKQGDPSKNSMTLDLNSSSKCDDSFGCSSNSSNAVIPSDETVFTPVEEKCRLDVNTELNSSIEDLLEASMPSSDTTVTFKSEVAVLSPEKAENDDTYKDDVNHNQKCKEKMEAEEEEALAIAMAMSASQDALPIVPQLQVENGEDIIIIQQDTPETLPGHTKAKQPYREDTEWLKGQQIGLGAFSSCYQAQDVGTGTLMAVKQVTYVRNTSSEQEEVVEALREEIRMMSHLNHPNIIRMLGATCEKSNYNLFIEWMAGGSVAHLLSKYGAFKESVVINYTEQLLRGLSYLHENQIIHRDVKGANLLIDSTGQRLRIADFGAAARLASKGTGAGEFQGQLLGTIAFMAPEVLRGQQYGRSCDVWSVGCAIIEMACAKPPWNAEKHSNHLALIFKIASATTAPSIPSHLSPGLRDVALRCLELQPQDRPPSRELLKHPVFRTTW

[7] = biological target: Protein kinase C theta type (Homo sapiens, UniProt Q04759); assay: Selectivity interaction (Upstate Kinase Profiler service (Millipore)) EUB0000056c PRKCQ; settings: at 1 µM
Chain of Protein kinase C theta type (Q04759 whole entry, looked up): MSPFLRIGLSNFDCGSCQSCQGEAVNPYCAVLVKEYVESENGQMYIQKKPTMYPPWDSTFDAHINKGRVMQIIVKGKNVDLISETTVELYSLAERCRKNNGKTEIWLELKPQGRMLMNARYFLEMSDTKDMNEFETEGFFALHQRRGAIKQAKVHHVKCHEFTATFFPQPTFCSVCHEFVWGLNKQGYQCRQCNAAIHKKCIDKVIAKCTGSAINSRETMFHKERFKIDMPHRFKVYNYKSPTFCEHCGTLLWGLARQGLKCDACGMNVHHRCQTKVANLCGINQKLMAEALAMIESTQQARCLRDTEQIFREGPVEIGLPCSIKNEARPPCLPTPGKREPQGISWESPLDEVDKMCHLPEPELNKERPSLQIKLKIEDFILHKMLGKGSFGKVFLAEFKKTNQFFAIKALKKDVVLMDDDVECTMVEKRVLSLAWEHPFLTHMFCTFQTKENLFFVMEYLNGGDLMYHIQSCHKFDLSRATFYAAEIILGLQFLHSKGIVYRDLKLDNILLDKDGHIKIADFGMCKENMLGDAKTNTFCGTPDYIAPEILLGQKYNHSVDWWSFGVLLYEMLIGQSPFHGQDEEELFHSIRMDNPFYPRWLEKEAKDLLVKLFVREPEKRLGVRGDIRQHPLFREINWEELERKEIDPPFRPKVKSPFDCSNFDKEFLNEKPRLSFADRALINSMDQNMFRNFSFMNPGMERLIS

KCNE1 = KCNE1 (Homo sapiens, UniProt P15382); assay: Selectivity interaction (Panel of kinases, GPCRs, ion channels and transporters (enzymatic assay)) EUB0000223bCl KCNE1
[8] = biological target: Ribosomal protein S6 kinase alpha-2 (Homo sapiens) (UniProt Q15349); assay: Selectivity interaction (KinomeScan (DiscoverX)) EUB0001619a RPS6KA2; settings: at 1 µM
Chain of Ribosomal protein S6 kinase alpha-2 (Homo sapiens) (Q15349 whole entry): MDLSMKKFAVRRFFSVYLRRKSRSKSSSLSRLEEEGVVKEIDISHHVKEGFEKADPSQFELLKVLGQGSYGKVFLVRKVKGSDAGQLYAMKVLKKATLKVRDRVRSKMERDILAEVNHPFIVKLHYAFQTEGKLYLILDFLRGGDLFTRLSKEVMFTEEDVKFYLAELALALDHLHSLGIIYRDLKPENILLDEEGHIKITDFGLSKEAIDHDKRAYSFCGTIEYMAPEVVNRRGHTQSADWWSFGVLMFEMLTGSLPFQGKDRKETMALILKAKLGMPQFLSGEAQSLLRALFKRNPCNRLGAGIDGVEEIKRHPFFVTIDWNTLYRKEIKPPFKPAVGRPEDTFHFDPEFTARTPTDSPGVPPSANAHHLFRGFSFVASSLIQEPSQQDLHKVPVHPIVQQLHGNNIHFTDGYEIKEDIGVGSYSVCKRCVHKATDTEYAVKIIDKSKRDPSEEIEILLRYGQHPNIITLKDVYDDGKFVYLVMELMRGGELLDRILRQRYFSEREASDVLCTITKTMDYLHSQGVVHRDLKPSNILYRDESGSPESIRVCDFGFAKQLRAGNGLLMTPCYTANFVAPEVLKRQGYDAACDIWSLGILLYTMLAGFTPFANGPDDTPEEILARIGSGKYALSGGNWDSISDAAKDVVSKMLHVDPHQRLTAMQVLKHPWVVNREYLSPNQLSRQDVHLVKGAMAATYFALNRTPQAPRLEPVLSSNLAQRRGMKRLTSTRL

[9] = biological target: T3, Testis-specific serine/threonine-protein kinase 1 (Homo sapiens) (UniProt Q9BXA7); assay: Selectivity interaction (KinomeScan (DiscoverX)) EUB0000607a TSSK1A; settings: at 10 µM
T3 sequence (whole entry): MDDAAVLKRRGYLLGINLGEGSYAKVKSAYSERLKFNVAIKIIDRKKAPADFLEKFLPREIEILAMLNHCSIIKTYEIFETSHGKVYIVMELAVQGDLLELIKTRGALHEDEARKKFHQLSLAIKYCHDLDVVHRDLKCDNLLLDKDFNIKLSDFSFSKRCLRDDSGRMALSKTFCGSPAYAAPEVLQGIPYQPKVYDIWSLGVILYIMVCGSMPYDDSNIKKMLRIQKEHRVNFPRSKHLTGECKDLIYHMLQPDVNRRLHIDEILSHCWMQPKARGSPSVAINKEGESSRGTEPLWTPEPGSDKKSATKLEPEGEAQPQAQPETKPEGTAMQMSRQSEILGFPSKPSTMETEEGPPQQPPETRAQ

Misshapen-like kinase 1 = Misshapen-like kinase 1 (Homo sapiens, UniProt Q8N4C8); assay: Selectivity interaction (SelectScreen Kinase Profiling (Thermo Fisher Scientific)) EUB0001558a MINK1; settings: at 1 µM
[10] = biological target: Serine/threonine-protein kinase SBK1 (Homo sapiens) (UniProt Q52WX2); assay: Selectivity interaction (KinomeScan (DiscoverX)) EUB0000618a SBK1; settings: at 10 µM
[11] = biological target: Cyclin-dependent kinase 4/cyclin D1 (Homo sapiens) (UniProt P11802+P24385); assay: (§1) Selectivity interaction (KinomeScan (DiscoverX)) EUB0000618a CDK4; assay type: protein-complex assay; settings: at 10 µM
[12] = biological target: CDK4/Cyclin D3 (Homo sapiens) (UniProt P11802+P30281); assay: as §1; assay type: protein-complex assay; settings: at 10 µM
[13] = biological target: Cyclin-dependent kinase 7 (Homo sapiens, UniProt P50613); assay: Selectivity interaction (ActivX KiNativ screen (kinase selectivity in THP-1 cell lysates)) EUB0000639a CDK7; assay type: subcellular; settings: lysate, at 1 µM
Chain of Cyclin-dependent kinase 7 (P50613 whole entry): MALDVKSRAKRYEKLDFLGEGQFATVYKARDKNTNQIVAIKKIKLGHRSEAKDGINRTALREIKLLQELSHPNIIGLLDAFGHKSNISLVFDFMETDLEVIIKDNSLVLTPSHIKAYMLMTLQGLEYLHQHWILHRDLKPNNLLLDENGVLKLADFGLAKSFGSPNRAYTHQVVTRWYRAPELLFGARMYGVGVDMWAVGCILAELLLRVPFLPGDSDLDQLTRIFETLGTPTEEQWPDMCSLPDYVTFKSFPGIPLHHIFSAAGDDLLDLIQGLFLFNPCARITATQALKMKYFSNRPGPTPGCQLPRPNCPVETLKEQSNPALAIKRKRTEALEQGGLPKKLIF

[14] = biological target: T4, Serine/threonine-protein kinase 3 (Homo sapiens) (UniProt Q13188); assay: Selectivity interaction (ActivX KiNativ screen (kinase selectivity in THP-1 cell lysates)) EUB0000639a STK3; assay type: subcellular; settings: lysate
T4 sequence (whole entry): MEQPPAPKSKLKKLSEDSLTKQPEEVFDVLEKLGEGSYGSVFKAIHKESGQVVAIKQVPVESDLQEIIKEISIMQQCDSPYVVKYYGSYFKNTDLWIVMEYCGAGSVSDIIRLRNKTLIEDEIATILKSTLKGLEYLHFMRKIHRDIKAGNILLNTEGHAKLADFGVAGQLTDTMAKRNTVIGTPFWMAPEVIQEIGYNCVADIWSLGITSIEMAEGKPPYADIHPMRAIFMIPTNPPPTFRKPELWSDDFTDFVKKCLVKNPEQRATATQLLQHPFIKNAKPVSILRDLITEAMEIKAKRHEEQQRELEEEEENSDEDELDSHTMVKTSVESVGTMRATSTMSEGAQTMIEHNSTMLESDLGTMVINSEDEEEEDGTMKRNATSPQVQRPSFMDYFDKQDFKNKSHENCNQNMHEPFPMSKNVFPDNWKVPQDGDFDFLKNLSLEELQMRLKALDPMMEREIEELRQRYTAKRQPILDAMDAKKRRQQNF

[15] = biological target: Mitogen-activated protein kinase 3 (Homo sapiens, UniProt P27361); assay: Selectivity interaction (KinomeScan (DiscoverX)) EUB0000655a MAPK3; settings: at 10 µM
Chain of Mitogen-activated protein kinase 3 (P27361 whole entry): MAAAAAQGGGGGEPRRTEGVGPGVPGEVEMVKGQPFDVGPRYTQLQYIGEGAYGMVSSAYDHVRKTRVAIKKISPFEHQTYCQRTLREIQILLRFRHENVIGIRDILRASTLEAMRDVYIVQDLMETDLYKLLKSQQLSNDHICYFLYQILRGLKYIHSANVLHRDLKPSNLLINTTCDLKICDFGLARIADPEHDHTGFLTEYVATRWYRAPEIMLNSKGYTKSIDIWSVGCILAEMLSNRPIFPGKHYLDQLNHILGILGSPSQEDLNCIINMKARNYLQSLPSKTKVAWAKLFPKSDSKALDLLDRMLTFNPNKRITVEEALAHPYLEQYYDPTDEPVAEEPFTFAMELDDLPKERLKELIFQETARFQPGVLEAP

[16] = biological target: T2, Mitogen-activated protein kinase kinase kinase 1; assay: Selectivity interaction (KinomeScan (DiscoverX)) EUB0000655a MAP3K1; settings: at 10 µM

Chain of Serine/threonine-protein kinase RIO2 (Homo sapiens) (Q9BVS4 whole entry, looked up): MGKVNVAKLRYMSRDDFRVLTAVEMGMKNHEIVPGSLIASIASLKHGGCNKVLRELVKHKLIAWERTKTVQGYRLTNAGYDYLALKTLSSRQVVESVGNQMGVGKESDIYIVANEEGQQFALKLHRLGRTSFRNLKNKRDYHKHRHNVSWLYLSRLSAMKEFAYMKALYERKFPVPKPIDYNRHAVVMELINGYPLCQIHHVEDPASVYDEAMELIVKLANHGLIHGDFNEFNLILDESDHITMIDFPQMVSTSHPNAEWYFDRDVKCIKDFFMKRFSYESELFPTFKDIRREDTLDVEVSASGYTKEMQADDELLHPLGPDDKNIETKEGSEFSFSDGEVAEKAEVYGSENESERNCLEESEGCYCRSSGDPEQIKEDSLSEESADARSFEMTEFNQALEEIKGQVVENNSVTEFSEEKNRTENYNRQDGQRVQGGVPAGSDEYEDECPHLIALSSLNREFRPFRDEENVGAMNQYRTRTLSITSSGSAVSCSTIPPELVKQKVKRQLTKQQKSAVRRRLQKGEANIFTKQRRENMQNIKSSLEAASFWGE

COCC(=O)NC/C=C/c1ccc2ncnc(Nc3ccc(Oc4ccc(C)nc4)c(C)c3)c2c1 [CP-724714]
% of control [1]: 100%
% of control [2]: 73%

Cn1cc(-n2cnc3c(NCc4nc5cc(Cl)c(Cl)cc5[nH]4)nc(N4CCOCC4)nc32)cn1
% of control [3]: 11.7%

O=C(NOC[C@H](O)CO)c1ccc(F)c(F)c1Nc1ccc(I)cc1F
% of control [4]: 100%
% of control [5]: 86%
% of control [6]: 54%

Cc1ccc(-c2ccc3c(ccc4sc5c(c43)NC[C@@H](C)NC5=O)n2)cn1
% of inhibition [7]: 27%

COc1cc(C(=O)N2CC[C@@H](O)[C@@H](N)C2)cc2nc(-c3cc4ccccc4n3CC3CC3)n(C)c12
XC50 (KCNE1): > 25.1 µM

N#Cc1cccc(-c2c[nH]c3ncnc(N4CCOCC4)c23)c1
% of control [8]: 82%

CNC(=O)Nc1ccc(-c2nc(N3CC4CCC(C3)O4)c3cnn(C4CCC5(CC4)OCCO5)c3n2)cc1
% of control [9]: 100%

CC(C)(O)[C@H](F)CN1Cc2cc(NC(=O)c3cnn4cccnc34)c(N3CCOCC3)cc2C1=O
% of inhibition (Misshapen-like kinase 1): 80.5%

O[C@H]1CC[C@H](Nc2ncc3nc(Nc4c(F)cc(F)cc4F)n([C@H]4CCOC4)c3n2)CC1
% of control [10]: 73%
% of control [11]: 100%
% of control [12]: 80%

CC[C@@H]1[C@H](F)C(=O)N[C@@H]1COc1nccc2cc(C(N)=O)c(OC)cc12 [ZIMLOVISERTIB]
% of inhibition [13]: 10.8%
% of inhibition ([14]; at 0.01 µM): -6.8%
% of inhibition ([14]; at 0.04 µM): -5.9%
% of inhibition ([14]; at 0.2 µM): -9.3%
% of inhibition ([14]; at 1 µM): 4%
% of inhibition ([14]; at 5 µM): 11.1%

CN(C)CCOc1ccc(-c2nc(-c3ccncc3)c(-c3ccc4c(c3)CC/C4=N\O)[nH]2)cc1
% of control [15]: 100%
% of control [16]: 72%
